Laboratory results: ChEMBL document CHEMBL1154175, “A dynamic target-based pharmacophoric model mapping the CD4 binding site on HIV-1 gp120 to identify new inhibitors of gp120-CD4 protein-protein interactions” (Bioorg Med Chem Lett, 2009)
The source made the active and inactive calls. No cut-off for these calls is given here.

Tests used:
[1] = system: Human immunodeficiency virus 1; test: Antiviral activity against HIV1 NL4-3 with gp120 mutation […] infected in human MT4 cells assessed as inhibition of virus-induced cytopathic effect after 5 days by MTT assay; type: functional, organism-based; conditions: Human immunodeficiency virus 1, NL4-3, MT4, 120 h
[2] = system: Human immunodeficiency virus 1; test: Antiviral activity against HIV1 NL4-3 infected in human MT4 cells assessed as inhibition of virus-induced cytopathic effect after 5 days by MTT assay; type: functional, organism-based; conditions: Human immunodeficiency virus 1, NL4-3, MT4, 120 h
[3] = Cytotoxicity against human MT4 cells after 5 days by MTT assay; type: cell-based
[4] = system: Human immunodeficiency virus 1; test: Antiviral activity against HIV1 NL4-3 infected in human MT4 cells assessed as capsid p24antigen production at 100 times EC50 treated after infection by ELISA; type: functional, organism-based
[5] = system: Human immunodeficiency virus 1; test: Antiviral activity against HIV1 NL4-3 infected in human MT4 cells assessed as capsid p24antigen production at 100 times EC50 treated before infection by ELISA; type: functional, organism-based

| Compound | EC50 [1] [µM] | EC50 [2] [µM] | CC50 at 120 h [3] [µM] | Activity [4] | Activity [5] |
| --- | --- | --- | --- | --- | --- |
| C[C@@H]1CN(C(=O)c2ccccc2)CCN1C(=O)C(=O)c1cc2ccccc2[nH]1 | > 2.66 | 0.024 | > 2.66 | – | – |
| CCOC(=O)[C@H](Cc1ccc(/N=C/c2cc(Br)ccc2O)cc1)N1C(=O)c2ccccc2C1=O | > 48 | 22 | > 48 | – | – |
| COc1ccc(/C=N/c2nc3ccccc3n2Cc2ccc(Cl)cc2)cc1OC | – | > 62 | > 62 | – | – |
| CCOC(=O)/C(=C\c1ccc(-c2cccc([N+](=O)[O-])c2)o1)C(=O)c1ccccc1 | > 64 | 9 | > 64 | inactive | Active |
| COc1nc(N/N=C/c2ccc(-c3ccc(Cl)c([N+](=O)[O-])c3)o2)nc(N2CCOCC2)n1 | – | > 54 | > 54 | – | – |
| C=CCn1c(SCc2ccc(C(=O)NCCO)cc2)nc2ccccc2c1=O | – | > 63 | > 63 | – | – |
